Assay results as given in patent US12329741B2, “HBV inhibitor and its use” (priority 2019, dated 2025).

Experiments:
hepatitis B virus (HBV) = test: Anti-hepatitis B virus activity: HBV DNA in supernatant of HepG2.2.15 cells by qPCR; assay type: cell-based; conditions: 192 h, supernatant collected on day 8
Text: (§1) In this experiment, real-time fluorescent quantitative PCR (qPCR) method was used to detect the content of HBV DNA in the supernatant of HepG2.2.15 cells to determine the anti-hepatitis B virus activity of the compound in HepG2.2.15 cells, and to detect cell viability impact of the test compound against HepG2.2.15 by Cell-titer Blue method. In the experiment, entecavir (ETV) was used as a reference compound to monitor the quality of the experiment.
On day 1, the cells were planted into a 96-well plate, the compound was added to treat the cells on day 2, a new culture medium containing the compound was replaced on day 5, and the supernatant was collected on day 8 to extract DNA. Quantitative PCR was used to detect the content of HBV DNA. Both the test compound and the control compound were diluted in a series of 3 times with 8 concentration points, and 2 replicate wells were measured in parallel. The final concentration of DMSO in the culture medium is 0.5%.
The calculation formula of the inhibition percentage is as follows: % inh.=(1-HBV copy number of sample/HBV copy number of 0.5% DMSO control)×100
EC50 was analyzed by Graphpad Prism software (four parameter logistic equations).

[1] = Cytotoxicity test (Cell-titer Blue method) in HepG2.2.15 cells; assay type: cell-based; conditions: human, six days after treatment, highest concentration tested 100 μM, read-out: HepG2.2.15 cell viability CC50
Text: as §1
The compound concentration, plate layout, and compound treatment process are consistent with the antiviral experiments. In six days after the cells were treated with the compound, the cell viability was measured with Cell-titer Blue.
Analyze the data and calculate relative cell viability: Use the following formula to calculate the percentage of cell viability: % Cell viability=(sample fluorescence reading-fluorescence reading of culture medium control)/(fluorescence reading of DMSO control-fluorescence reading of the culture medium control)×100.
Finally, GraphPad Prism software was used to calculate the CC50 value of the compound.

Row | SMILES | EC50 (hepatitis B virus (HBV)) [µM] | CC50 at 6 days [1] [µM]
1 | C#CCNC(=O)C(=O)c1c(C)c(C(=O)Nc2ccc3c(c2)CCO3)n(C)c1C [Compound 69, 1,3,5-Trimethyl-2-amide-N-(2,3-dihydrobenzofuran-5-yl)-4-(2-propargylamino-oxalyl)-pyrrole] | 0.05 to 0.5 | > 100
2 | C#CCNC(=O)C(=O)c1c(C)c(C(=O)Nc2ccc3ncccc3c2)n(C)c1C [Compound 68, 1,3,5-Trimethyl-2-amide-N-(quinolin-6-yl)-4-(2-propargylamino-oxalyl)-pyrrole] | 0.5 to 5 | > 100
3 | COCC1(NC(=O)C(=O)c2sc(C)c(C(=O)Nc3ccc4occc4c3)c2C)COC1 [Compound 41] | ≤ 0.05 | > 100
4 | CC(C)(C)NC(=O)C(=O)c1nc(C(=O)Nc2ccc(F)c(Cl)c2)cs1 [Compound 44, 2-(2-Tert-Butylamino-oxalyl)-4-amide-N-(3-chloro-4-fluoro-phenyl)-thiazole] | > 50 | 28
5 | C#CCNC(=O)C(=O)c1c(C)c(C(=O)Nc2ccc3nccnc3c2)n(C)c1C [Compound 67, 1,3,5-Trimethyl-2-amide-N-(quinoxalin-6-yl)-4-(2-propargylamino-oxalyl)-pyrrole] | 0.5 to 5 | > 100
6 | Cc1c(C(=O)C(=O)NC2CCCC2)c(C)n(C)c1C(=O)Nc1ccc2occc2c1 [Compound 58, 1,3,5-Trimethyl-2-amide-N-(benzofuran-5-yl)-4-(2-cyclopentylamino-oxalyl)-pyrrole] | ≤ 0.05 | > 100
7 | C#CCNC(=O)C(=O)c1c(C)c(C(=O)Nc2ccc3c(c2)ncn3C)n(C)c1C [Compound 72, 1,3,5-Trimethyl-2-amide-N-(1-methyl-1H-benzimidazol-5-yl)-4-(2-propargylamino-oxalyl)-Pyrrole] | 0.5 to 5 | > 100
8 | Cc1sc(C(=O)C(=O)NC(C)(C)C)cc1C(=O)Nc1ccc(F)c(F)c1 [Compound 34, 2-Methyl-3-amide-N-(3,4-difluorophenyl)-5-(2-tert-butylamino-oxalyl)-thiophene] | 0.05 to 0.5 | > 100
9 | Cc1oc(C(=O)C(=O)NCC#CC(C)C)cc1C(=O)Nc1ccc(F)c(Cl)c1 [Compound 6, 2-Methyl-3-amide-N-(3-chloro-4-fluorophenyl)-5-(2-(4-methyl-2-ynylpentylamino)-oxalyl)-furan] | 5 to 50 | 82
10 | Cc1c(C(=O)C(=O)Nc2nccs2)c(C)n(C)c1C(=O)Nc1ccc2occc2c1 [Compound 59, 1,3,5-Trimethyl-2-amide-N-(benzofuran-5-yl)-4-(2-(thiazol-2-amino)-oxalyl)-pyrrole] | ≤ 0.05 | > 100
11 | C#CCNC(=O)C(=O)c1c(C)c(C(=O)Nc2ccc3ccccc3c2)n(C)c1C [Compound 66, 1,3,5-Trimethyl-2-amide-N-(naphthalen-2-yl)-4-(2-propargylamino-oxalyl)-pyrrole] | 0.05 to 0.5 | > 100
12 | Cc1c(C(=O)C(=O)NC2(C)COC2)c(C)n(C)c1C(=O)Nc1ccc2occc2c1 [Compound 57, 1,3,5-Trimethyl-2-amide-N-(benzofuran-5-yl)-4-(2-(3-methyl-3-oxetanino)-oxalyl)-pyrrole] | ≤ 0.05 | > 100
13 | Cc1oc(C(=O)C(=O)NC(C)(C)C)cc1C(=O)Nc1ccc(F)cc1 [Compound 18, 2-Methyl-3-amide-N-(4-fluorophenyl)-5-(2-tert-butylamino-oxalyl)-furan] | 0.5 to 5 | > 100
14 | Cc1oc(C(=O)C(=O)NC(C)(C)C)cc1C(=O)Nc1ccc(C(F)(F)F)cc1 [Compound 22, 2-Methyl-3-amide-N-(4-trifluoromethylphenyl)-5-(2-tert-butylamino-oxalyl)-furan] | > 50 | > 100
15 | C#Cc1cccc(NC(=O)c2cc(C(=O)C(=O)NC(C)(C)C)oc2C)c1 [Compound 28, 2-Methyl-3-amide-N-(3-alkynylphenyl)-5-(2-tert-butylamino-oxalyl)-furan] | 5 to 50 | > 100
16 | C#CCNC(=O)C(=O)c1cc(C(=O)Nc2ccc(F)c(Cl)c2)c(C)s1 [Compound 30, 2-Methyl-3-amide-N-(3-chloro-4-fluorophenyl)-5-(2-propargylamino-oxalyl)-thiophene] | 0.5 to 5 | > 100
17 | C#CCNC(=O)C(=O)c1c(C)c(C(=O)Nc2ccc3oncc3c2)n(C)c1C [Compound 74, 1,3,5-Trimethyl-2-amide-N-(benzisoxazol-5-yl)-4-(2-propargylamino-oxalyl)-pyrrole] | 0.5 to 5 | > 100

Row | SMILES | EC50 (hepatitis B virus (HBV)) [µM] | CC50 at 6 days [1] [µM]
18 | C#CC(C)(C)NC(=O)C(=O)c1sc(C)c(C(=O)Nc2ccc(F)c(Cl)c2)c1C [Compound 38, 2,4-Dimethyl-3-amide-N-(3-chloro-4-fluorophenyl)-5-(2-(1,1-dimethylpropynamido)-oxalyl)-thiophene] | ≤ 0.05 | > 100
19 | C#CCNC(=O)C(=O)c1c(C)c(C(=O)Nc2ccc3sccc3c2)n(C)c1C [Compound 63, 1,3,5-Trimethyl-2-amide-N-(benzothiophen-5-yl)-4-(2-propargylamino-oxalyl)-pyrrole] | 0.05 to 0.5 | > 100
20 | COCC1(NC(=O)C(=O)c2c(C)c(C(=O)Nc3ccc4occc4c3)n(C)c2C)COC1 [Compound 62, 1,3,5-trimethyl-2-amide-N-(benzofuran-5-yl)-4-(2-(3-methoxymethyl-3-oxetan)(amino)-oxalyl)-pyrrole] | ≤ 0.05 | > 100
21 | Cc1oc(C(=O)C(=O)NC(C)(C)C)cc1C(=O)Nc1ccc(F)c(Cl)c1 [Compound 1, 2-Methyl-3-amide-N-(3-chloro-4-fluorophenyl)-5-(2-tert-butylamino-oxalyl)-furan] | 0.5 to 5 | > 100
22 | Cc1oc(C(=O)C(=O)Nc2ccccc2)cc1C(=O)Nc1ccc(F)c(Cl)c1 [Compound 9, 2-Methyl-3-amide-N-(3-chloro-4-fluorophenyl)-5-(2-anilino-oxalyl)-furan] | 5 to 50 | > 100
23 | C#CC(C)NC(=O)C(=O)c1cc(C(=O)Nc2ccc(F)c(Cl)c2)c(C)o1 (stereo not drawn) [Compound 3, 2-Methyl-3-amide-N-(3-chloro-4-fluorophenyl)-5-(2-(1-methylpropynamido)-oxalyl)-furan] | 0.5 to 5 | > 100
24 | Cc1oc(C(=O)C(=O)NC(C)(C)C)cc1C(=O)Nc1cc(F)c(F)c(F)c1 [Compound 20, 2-Methyl-3-amide-N-(3,4,5-trifluorophenyl)-5-(2-tert-butylamino-oxalyl)-furan] | 0.05 to 0.5 | > 100
25 | Cc1sc(C(=O)C(=O)NC(C)(C)C)cc1C(=O)Nc1ccc(F)c(Cl)c1 [Compound 29, 2-Methyl-3-amide-N-(3-chloro-4-fluorophenyl)-5-(2-tert-butylamino-oxalyl)-thiophene] | 0.05 to 0.5 | > 100
26 | Cc1oc(C(=O)C(=O)NC(C)(C)C)cc1C(=O)Nc1ccc(F)c(C#N)c1 [Compound 21] | 0.5 to 5 | > 100
27 | CNC(=O)C1(NC(=O)C(=O)c2c(C)c(C(=O)Nc3ccc4occc4c3)n(C)c2C)CC(F)(F)C1 [Compound 60, 1,3,5-Trimethyl-2-amide-N-(benzofuran-5-yl)-4-(2-(N-methyl-1-carboxamide-3,3-difluorocyclobutane-1-amine)-oxalyl)-pyrrole] | ≤ 0.05 | > 100
28 | Cc1oc(C(=O)C(=O)NCC#Cc2ccccc2)cc1C(=O)Nc1ccc(F)c(Cl)c1 [Compound 7, 2-Methyl-3-amide-N-(3-chloro-4-fluorophenyl)-5-(2-(3-phenyl-2-eynylpropylamino)-oxalyl)-furan] | > 50 | 29
29 | C#CCNC(=O)C(=O)c1c(C)c(C(=O)Nc2ccc3scnc3c2)n(C)c1C [Compound 70, 1,3,5-Trimethyl-2-amide-N-(benzothiazol-5-yl)-4-(2-propargylamino-oxalyl)-pyrrole] | 0.5 to 5 | > 100
30 | C=CCn1cc(CNC(=O)C(=O)c2cc(C(=O)Nc3ccc(F)c(Cl)c3)c(C)o2)nn1 [Compound 10, 2-Methyl-3-amide-N-(3-chloro-4-fluorophenyl)-5-(2-(1-allyl-1H[1,2,3]-triazole-4-methylamino)-oxalyl)-furan] | > 50 | > 100
31 | C#Cc1cc(NC(=O)c2cc(C(=O)C(=O)NC(C)(C)C)oc2C)ccc1F [Compound 27, 2-Methyl-3-amide-N-(3-alkynyl-4-fluorophenyl)-5-(2-tert-butylamino-oxalyI)-furan] | 5 to 50 | > 100
32 | Cc1c(C(=O)C(=O)NC(C)(C)C)csc1C(=O)Nc1ccc(F)c(Cl)c1 [Compound 85, 2-Amide-N-(3-chloro-4-fluoro-phenyl)-3-methyl-4-(2-tert-butylamino-oxalyl)-thiophene] | 0.5 to 5 | 96
33 | C#CC(C)(C)NC(=O)C(=O)c1cc(C(=O)Nc2ccc(F)c(Cl)c2)c(C)o1 [Compound 4, 2-Methyl-3-amide-N-(3-chloro-4-fluorophenyl)-5-(2-(1,1-dimethylpropynamido)-oxalyl)-furan] | 0.5 to 5 | > 100
